≈ marks a conversion by molar mass, not a printed value.
What was measured:
Plasmodium falciparum [1] = test: Antimalarial activity against chloroquine-resistant and mefloquine-sensitive Plasmodium falciparum W2 assessed as inhibition of [3H]hypoxanthine incorporation by liquid scintillation spectrometry; type: functional
Plasmodium falciparum [2] = test: Antimalarial activity against chloroquine-sensitive and mefloquine-resistant Plasmodium falciparum D6 assessed as inhibition of [3H]hypoxanthine incorporation by liquid scintillation spectrometry; type: functional
Plasmodium falciparum [3] = test: Antimalarial activity against chloroquine, mefloquine and pyrimethamine-resistant Plasmodium falciparum TM91C235 assessed as inhibition of [3H]hypoxanthine incorporation by liquid scintillation spectrometry; type: functional
Plasmodium falciparum [4] = test: Antimalarial activity against chloroquine-sensitive and mefloquine-resistant Plasmodium falciparum D6 by SYBR Green I-based fluorescence assay; type: functional
Plasmodium falciparum [5] = test: Antimalarial activity against chloroquine, mefloquine and pyrimethamine-resistant Plasmodium falciparum TM90C2A assessed as inhibition of [3H]hypoxanthine incorporation by liquid scintillation spectrometry; type: functional
[6] = Apparent permeability from apical to basolateral side of dog MDCK cells at 5 uM after 2 hrs by LC/MS/MS analysis; type: ADME, cell-based, Canis lupus familiaris
Plasmodium falciparum [7] = test: Antimalarial activity against chloroquine, mefloquine and pyrimethamine-resistant Plasmodium falciparum TM91C235 by SYBR Green I-based fluorescence assay; type: functional
Plasmodium berghei [8] = test: Antimalarial activity against Plasmodium berghei infected in mouse assessed as complete cure at 40 mg/kg, po administered as single dose measured on day 31; type: functional
Plasmodium berghei [9] = test: Antimalarial activity against Plasmodium berghei infected in mouse assessed as host survival at 80 mg/kg, po administered as single dose measured on day 31; type: functional; settings: 744 h
Plasmodium berghei [10] = test: Antimalarial activity against Plasmodium berghei infected in mouse assessed as host survival at 10 mg/kg, po administered as single dose measured on day 31; type: functional; settings: 744 h
Plasmodium berghei [11] = test: Antimalarial activity against Plasmodium berghei infected in mouse assessed as complete cure at 160 mg/kg, po administered as single dose measured on day 31; type: functional
Plasmodium berghei [12] = test: Antimalarial activity against Plasmodium berghei infected in mouse assessed as host survival at 320 mg/kg, po administered as single dose measured on day 31; type: functional; settings: 744 h
Plasmodium berghei [13] = test: Antimalarial activity against Plasmodium berghei infected in mouse assessed as complete cure at 5 mg/kg, po administered as single dose measured on day 31; type: functional
Plasmodium berghei [14] = test: Antimalarial activity against Plasmodium berghei infected in mouse assessed as host survival at 160 mg/kg, po administered as single dose; type: functional
Plasmodium falciparum [15] = test: Antimalarial activity against chloroquine-resistant and mefloquine-sensitive Plasmodium falciparum W2; type: functional
Plasmodium falciparum [16] = test: Antimalarial activity against mefloquine-resistant and chloroquine-sensitive Plasmodium falciparum D6; type: functional
Plasmodium berghei [17] = test: Antimalarial activity against Plasmodium berghei infected in mouse assessed as host survival at 40 mg/kg, po administered as single dose; type: functional
Plasmodium berghei [18] = test: Antimalarial activity against Plasmodium berghei infected in mouse assessed as host survival at 40 mg/kg, po administered as single dose measured on day 31; type: functional; settings: 744 h
Plasmodium falciparum [19] = test: Antimalarial activity against chloroquine, mefloquine and pyrimethamine-resistant Plasmodium falciparum TM91C235; type: functional
Plasmodium falciparum [20] = test: Antimalarial activity against chloroquine, mefloquine and pyrimethamine-resistant Plasmodium falciparum TM90C2A; type: functional
Plasmodium berghei [21] = test: Antimalarial activity against Plasmodium berghei infected in mouse assessed as host survival at 160 mg/kg, po administered as single dose measured on day 31; type: functional; settings: 744 h
Plasmodium berghei [22] = test: Antimalarial activity against Plasmodium berghei infected in mouse assessed as host survival at 5 mg/kg, po administered as single dose measured on day 31; type: functional; settings: 744 h
Plasmodium berghei [23] = test: Antimalarial activity against Plasmodium berghei infected in mouse assessed as complete cure at 10 mg/kg, po administered as single dose measured on day 31; type: functional
Plasmodium berghei [24] = test: Antimalarial activity against Plasmodium berghei infected in mouse assessed as host survival at 80 mg/kg, po administered as single dose; type: functional
Plasmodium berghei [25] = test: Antimalarial activity against Plasmodium berghei infected in mouse assessed as host survival at 320 mg/kg, po administered as single dose; type: functional
Plasmodium berghei [26] = test: Antimalarial activity against Plasmodium berghei infected in mouse assessed as complete cure at 320 mg/kg, po administered as single dose measured on day 31; type: functional
Plasmodium berghei [27] = test: Antimalarial activity against Plasmodium berghei infected in mouse assessed as complete cure at 80 mg/kg, po administered as single dose measured on day 31; type: functional
Plasmodium berghei [28] = test: Antimalarial activity against Plasmodium berghei infected in mouse assessed as host survival at 10 mg/kg, po administered as single dose; type: functional
Plasmodium berghei [29] = test: Antimalarial activity against Plasmodium berghei infected in mouse assessed as host survival at 20 mg/kg, po administered as single dose; type: functional
Plasmodium berghei [30] = test: Antimalarial activity against Plasmodium berghei infected in mouse assessed as host survival at 5 mg/kg, po administered as single dose; type: functional
Plasmodium berghei [31] = test: Antimalarial activity against Plasmodium berghei infected in mouse assessed as host survival at 20 mg/kg, po administered as single dose measured on day 31; type: functional; settings: 744 h
Plasmodium berghei [32] = test: Antimalarial activity against Plasmodium berghei infected in mouse assessed as complete cure at 20 mg/kg, po administered as single dose measured on day 31; type: functional

## CC(CN1CCCC1)NCC(O)c1cc(C(F)(F)F)nc2c(C(F)(F)F)cccc12 (stereo not given)
Plasmodium falciparum [1]
  IC90: 0.011 µg/mL (≈ 0.0253 µM)
Plasmodium falciparum [2]
  IC90: 0.039 µg/mL (≈ 0.0896 µM)
Plasmodium falciparum [3]
  IC90: 0.079 µg/mL (≈ 0.181 µM)
Plasmodium falciparum [4]
  IC90: 0.008 µg/mL (≈ 0.0184 µM)
Plasmodium falciparum [5]
  IC90: 0.071 µg/mL (≈ 0.163 µM)
[6]
  Papp A→B at 2 h, 5 µM: 33.1 ×10⁻⁶ cm/s
Plasmodium falciparum [7]
  IC90: 0.055 µg/mL (≈ 0.126 µM)

## CC1CC(C)CN(CCNCC(O)c2cc(C(F)(F)F)nc3c(C(F)(F)F)cccc23)C1 (stereo not given)
Plasmodium falciparum [1]
  IC90: < 0.001 µg/mL
Plasmodium falciparum [2]
  IC90: 0.005 µg/mL (≈ 0.0108 µM)
Plasmodium falciparum [3]
  IC90: 0.01 µg/mL (≈ 0.0216 µM)
Plasmodium falciparum [4]
  IC90: 0.01 µg/mL (≈ 0.0216 µM)
Plasmodium falciparum [5]
  IC90: 0.011 µg/mL (≈ 0.0237 µM)
[6]
  Papp A→B at 2 h, 5 µM: 32.7 ×10⁻⁶ cm/s
Plasmodium falciparum [7]
  IC90: 0.056 µg/mL (≈ 0.121 µM)

## CCCCNCCNCC(O)c1cc(C(F)(F)F)nc2c(C(F)(F)F)cccc12 (stereo not given)
Plasmodium falciparum [1]
  IC90: 0.069 µg/mL (≈ 0.163 µM)
Plasmodium falciparum [2]
  IC90: 0.155 µg/mL (≈ 0.366 µM)
Plasmodium falciparum [3]
  IC90: 0.283 µg/mL (≈ 0.668 µM)
Plasmodium falciparum [4]
  IC90: 0.128 µg/mL (≈ 0.302 µM)
Plasmodium falciparum [5]
  IC90: 0.319 µg/mL (≈ 0.753 µM)
[6]
  Papp A→B at 2 h, 5 µM: 5.9 ×10⁻⁶ cm/s
Plasmodium falciparum [7]
  IC90: 0.236 µg/mL (≈ 0.557 µM)

## CN(CCNCC(O)c1cc(C(F)(F)F)nc2c(C(F)(F)F)cccc12)C1CCCC1 (stereo not given)
Plasmodium falciparum [1]
  IC90: 0.011 µg/mL (≈ 0.0245 µM)
Plasmodium falciparum [2]
  IC90: 0.048 µg/mL (≈ 0.107 µM)
Plasmodium falciparum [3]
  IC90: 0.106 µg/mL (≈ 0.236 µM)
Plasmodium falciparum [4]
  IC90: 0.035 µg/mL (≈ 0.0779 µM)
Plasmodium falciparum [5]
  IC90: 0.112 µg/mL (≈ 0.249 µM)
[6]
  Papp A→B at 2 h, 5 µM: 17 ×10⁻⁶ cm/s
Plasmodium falciparum [7]
  IC90: 0.109 µg/mL (≈ 0.243 µM)

## O[C@H](CNCCNC1CC1)c1cc(C(F)(F)F)nc2c(C(F)(F)F)cccc12
Plasmodium berghei [8]
  Activity: 0%
Plasmodium berghei [9]
  survival at 80 mg/kg: 0%
Plasmodium berghei [10]
  survival at 10 mg/kg: 0%
Plasmodium berghei [11]
  Activity: 0%
Plasmodium berghei [12]
  survival at 320 mg/kg: 100%
Plasmodium berghei [13]
  Activity: 0%
Plasmodium berghei [14]
  MST: 19 days
Plasmodium falciparum [15]
  IC90: 0.011 µg/mL (≈ 0.027 µM)
Plasmodium falciparum [16]
  IC90: 0.027 µg/mL (≈ 0.0663 µM)
Plasmodium berghei [17]
  MST: 10 days
Plasmodium berghei [18]
  survival at 40 mg/kg: 0%
Plasmodium falciparum [19]
  IC90: 0.077 µg/mL (≈ 0.189 µM)
Plasmodium falciparum [20]
  IC90: 0.073 µg/mL (≈ 0.179 µM)
Plasmodium berghei [21]
  survival at 160 mg/kg: 0%
Plasmodium berghei [22]
  survival at 5 mg/kg: 0%
Plasmodium berghei [23]
  Activity: 0%
Plasmodium berghei [24]
  MST: 16 days
Plasmodium berghei [25]
  MST: 30 days
Plasmodium berghei [26]
  Activity: 80%
Plasmodium berghei [27]
  Activity: 0%
Plasmodium berghei [28]
  MST: 6.6 days
Plasmodium berghei [29]
  MST: 6.8 days
Plasmodium berghei [30]
  MST: 6.6 days
Plasmodium berghei [31]
  survival at 20 mg/kg: 0%
Plasmodium berghei [32]
  Activity: 0%

## O[C@@H](CNCCNC1CC1)c1cc(C(F)(F)F)nc2c(C(F)(F)F)cccc12
Plasmodium falciparum [15]
  IC90: 0.011 µg/mL (≈ 0.027 µM)
Plasmodium falciparum [16]
  IC90: 0.037 µg/mL (≈ 0.0908 µM)
Plasmodium falciparum [19]
  IC90: 0.103 µg/mL (≈ 0.253 µM)
Plasmodium falciparum [20]
  IC90: 0.075 µg/mL (≈ 0.184 µM)

## CCN(CC)CCCC(C)Nc1ccnc2cc(Cl)ccc12 (stereo not given) [CHLOROQUINE]
Plasmodium falciparum [15]
  IC90: 0.266 µg/mL (≈ 0.832 µM)
Plasmodium falciparum [16]
  IC90: 0.0051 µg/mL (≈ 0.0159 µM)
Plasmodium falciparum [19]
  IC90: 0.089 µg/mL (≈ 0.278 µM)
Plasmodium falciparum [20]
  IC90: 0.139 µg/mL (≈ 0.435 µM)

## OC(c1cc(C(F)(F)F)nc2c(C(F)(F)F)cccc12)C1CCCCN1 (stereo not given) [MEFLOQUINE]
Plasmodium falciparum [1]
  IC90: 0.0067 µg/mL (≈ 0.0177 µM)
Plasmodium berghei [8]
  Activity: 36%
Plasmodium berghei [9]
  survival at 80 mg/kg: 70%
Plasmodium berghei [10]
  survival at 10 mg/kg: 0%
Plasmodium falciparum [2]
  IC90: 0.016 µg/mL (≈ 0.0423 µM)
Plasmodium falciparum [3]
  IC90: 0.053 µg/mL (≈ 0.14 µM)
Plasmodium berghei [11]
  Activity: 20%
Plasmodium berghei [12]
  survival at 320 mg/kg: 60%
Plasmodium berghei [13]
  Activity: 20%
Plasmodium berghei [14]
  MST: 27 days
Plasmodium falciparum [4]
  IC90: 0.015 µg/mL (≈ 0.0396 µM)
Plasmodium falciparum [15]
  IC90: 0.0067 µg/mL (≈ 0.0177 µM)
Plasmodium falciparum [16]
  IC90: 0.016 µg/mL (≈ 0.0423 µM)
Plasmodium berghei [17]
  MST: 26 days
Plasmodium berghei [18]
  survival at 40 mg/kg: 56%
Plasmodium falciparum [19]
  IC90: 0.053 µg/mL (≈ 0.14 µM)
Plasmodium berghei [21]
  survival at 160 mg/kg: 50%
Plasmodium berghei [22]
  survival at 5 mg/kg: 20%
Plasmodium berghei [23]
  Activity: 0%
Plasmodium berghei [24]
  MST: 28 days
Plasmodium berghei [25]
  MST: 24 days
Plasmodium berghei [26]
  Activity: 50%
Plasmodium berghei [27]
  Activity: 30%
Plasmodium berghei [28]
  MST: 15 days
Plasmodium berghei [29]
  MST: 22 days
Plasmodium berghei [30]
  MST: 17 days
Plasmodium berghei [31]
  survival at 20 mg/kg: 30%
Plasmodium berghei [32]
  Activity: 10%
Plasmodium falciparum [7]
  IC90: 0.042 µg/mL (≈ 0.111 µM)

Source: ChEMBL document CHEMBL1821574, “Structure-activity relationships of 4-position diamine quinoline methanols as intermittent preventative treatment (IPT) against Plasmodium falciparum” (J Med Chem, 2011)
